Tested on: 556581-035-R-J1-PDC complex spheroid growth
Assay: Anticancer human tumor 556581-035-R-J1-PDC patient-derived ovarian carcinoma cell line growth inhibition [AhR]
Conditions: for IC50: curve of first compound; for viability, T/C: stronger effect = lower value
Outline: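 Complex tumor spheroids co-cultured with HUVEC and human MSC stroma; AhR antagonists tested in combination with standard-of-care and investigational agents. Top concentration at or near clinical Cmax (else 10 microM), half-log dilutions; growth expressed as percent test/control.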

[1] = second compound 0.1 µM, first compound 0.0316 µM
[2] = second compound 0.1 µM, first compound 0.1 µM
[3] = second compound 0.1 µM, first compound 0.316 µM
[4] = second compound 0.1 µM, first compound 1 µM
[5] = second compound 0.1 µM, first compound 3.16 µM
[6] = second compound 0.1 µM, first compound 10 µM
[7] = second compound 0.316 µM, first compound 0.0316 µM
[8] = second compound 0.316 µM, first compound 0.1 µM
[9] = second compound 0.316 µM, first compound 0.316 µM
[10] = second compound 0.316 µM, first compound 1 µM
[11] = second compound 0.316 µM, first compound 3.16 µM
[12] = second compound 0.316 µM, first compound 10 µM
[13] = second compound 1 µM, first compound 0.0316 µM
[14] = second compound 1 µM, first compound 0.1 µM
[15] = second compound 1 µM, first compound 0.316 µM
[16] = second compound 1 µM, first compound 1 µM
[17] = second compound 1 µM, first compound 3.16 µM
[18] = second compound 1 µM, first compound 10 µM
[19] = second compound 3.16 µM, first compound 0.0316 µM
[20] = second compound 3.16 µM, first compound 0.1 µM
[21] = second compound 3.16 µM, first compound 0.316 µM
[22] = second compound 3.16 µM, first compound 1 µM
[23] = second compound 3.16 µM, first compound 3.16 µM
[24] = second compound 3.16 µM, first compound 10 µM
[25] = second compound 10 µM, first compound 0.0316 µM
[26] = second compound 10 µM, first compound 0.1 µM
[27] = second compound 10 µM, first compound 0.316 µM
[28] = second compound 10 µM, first compound 1 µM
[29] = second compound 10 µM, first compound 3.16 µM
[30] = second compound 10 µM, first compound 10 µM
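Wherever viability, T/C is given: compound exposure lasted 7 days; 100% = DMSO vehicle control growth.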

SMILES: CC(C)c1c(-c2ccccc2)nc2c(C#N)c[nH]n2c1=O + Cc1cncc(-c2nc(NCCc3c[nH]c4ccccc34)c3ncn(C(C)C)c3n2)c1
- IC50 (second compound 0.1 µM): > 10 µM
- IC50 (second compound 0.316 µM): > 10 µM
- IC50 (second compound 1 µM): > 10 µM
- IC50 (second compound 3.16 µM): > 10 µM
- IC50 (second compound 10 µM): > 10 µM
- viability, T/C [1]: 110%
- viability, T/C [2]: 106%
- viability, T/C [3]: 102%
- viability, T/C [4]: 103%
- viability, T/C [5]: 108%
- viability, T/C [6]: 88.5%
- viability, T/C [7]: 106%
- viability, T/C [8]: 110%
- viability, T/C [9]: 96.9%
- viability, T/C [10]: 108%
- viability, T/C [11]: 95.6%
- viability, T/C [12]: 96.3%
- viability, T/C [13]: 97.4%
- viability, T/C [14]: 107%
- viability, T/C [15]: 114%
- viability, T/C [16]: 102%
- viability, T/C [17]: 91.8%
- viability, T/C [18]: 102%
- viability, T/C [19]: 98.6%
- viability, T/C [20]: 104%
- viability, T/C [21]: 99.2%
- viability, T/C [22]: 92.7%
- viability, T/C [23]: 95.5%
- viability, T/C [24]: 90.5%
- viability, T/C [25]: 76.5%
- viability, T/C [26]: 84%
- viability, T/C [27]: 90%
- viability, T/C [28]: 71.1%
- viability, T/C [29]: 68.2%
- viability, T/C [30]: 70.7%

SMILES: CC1COCCN1c1cc(-c2ccnn2C)c2ccnc(-c3ccn[nH]3)c2n1 (stereo not given) + Cc1cncc(-c2nc(NCCc3c[nH]c4ccccc34)c3ncn(C(C)C)c3n2)c1
- IC50 (second compound 0.1 µM): 0.621 µM
- IC50 (second compound 0.316 µM): 0.518 µM
- IC50 (second compound 1 µM): 0.796 µM
- IC50 (second compound 3.16 µM): 0.76 µM
- IC50 (second compound 10 µM): 0.877 µM
- viability, T/C (second compound 0.1 µM, first compound 0.00316 µM): 99.4%
- viability, T/C (second compound 0.1 µM, first compound 0.01 µM): 96.1%
- viability, T/C [1]: 89.8%
- viability, T/C [2]: 82.2%
- viability, T/C [3]: 62.8%
- viability, T/C [4]: 40.5%
- viability, T/C (second compound 0.316 µM, first compound 0.00316 µM): 98.2%
- viability, T/C (second compound 0.316 µM, first compound 0.01 µM): 104%
- viability, T/C [7]: 93.2%
- viability, T/C [8]: 83%
- viability, T/C [9]: 55.6%
- viability, T/C [10]: 41.9%
- viability, T/C (second compound 1 µM, first compound 0.00316 µM): 100%
- viability, T/C (second compound 1 µM, first compound 0.01 µM): 102%
- viability, T/C [13]: 101%
- viability, T/C [14]: 83.8%
- viability, T/C [15]: 57.4%
- viability, T/C [16]: 48%
- viability, T/C (second compound 3.16 µM, first compound 0.00316 µM): 101%
- viability, T/C (second compound 3.16 µM, first compound 0.01 µM): 95.1%
- viability, T/C [19]: 88.6%
- viability, T/C [20]: 75.7%
- viability, T/C [21]: 62.4%
- viability, T/C [22]: 46.2%
- viability, T/C (second compound 10 µM, first compound 0.00316 µM): 77.6%
- viability, T/C (second compound 10 µM, first compound 0.01 µM): 71.9%
- viability, T/C [25]: 71.4%
- viability, T/C [26]: 64.3%
- viability, T/C [27]: 57.7%
- viability, T/C [28]: 49%

SMILES: COc1ccc([C@@H](O)c2cc(-c3ncnc4cc(N5CCOCC5)ccc34)c(F)cc2Cl)nn1 + Cc1cncc(-c2nc(NCCc3c[nH]c4ccccc34)c3ncn(C(C)C)c3n2)c1
- IC50 (second compound 0.1 µM): 3.12 µM
- IC50 (second compound 0.316 µM): 7.28 µM
- IC50 (second compound 1 µM): 4.2 µM
- IC50 (second compound 3.16 µM): 6.93 µM
- IC50 (second compound 10 µM): 9.85 µM
- viability, T/C [1]: 113%
- viability, T/C [2]: 114%
- viability, T/C [3]: 108%
- viability, T/C [4]: 72.2%
- viability, T/C [5]: 51.4%
- viability, T/C [6]: 45.6%
- viability, T/C [7]: 110%
- viability, T/C [8]: 105%
- viability, T/C [9]: 102%
- viability, T/C [10]: 77.8%
- viability, T/C [11]: 60.8%
- viability, T/C [12]: 45.8%
- viability, T/C [13]: 111%
- viability, T/C [14]: 112%
- viability, T/C [15]: 116%
- viability, T/C [16]: 87.9%
- viability, T/C [17]: 53.8%
- viability, T/C [18]: 42.5%
- viability, T/C [19]: 103%
- viability, T/C [20]: 113%
- viability, T/C [21]: 88.5%
- viability, T/C [22]: 82.6%
- viability, T/C [23]: 54.2%
- viability, T/C [24]: 47.8%
- viability, T/C [25]: 82.2%
- viability, T/C [26]: 85.7%
- viability, T/C [27]: 89.1%
- viability, T/C [28]: 74.8%
- viability, T/C [29]: 61.5%
- viability, T/C [30]: 49.5%

SMILES: O=C(C=Cn1cnc(-c2cc(C(F)(F)F)cc(C(F)(F)F)c2)n1)NNc1cnccn1 + Cc1cncc(-c2nc(NCCc3c[nH]c4ccccc34)c3ncn(C(C)C)c3n2)c1
- IC50 (second compound 0.1 µM): > 3 µM
- IC50 (second compound 0.316 µM): > 3 µM
- IC50 (second compound 1 µM): 1.86 µM
- IC50 (second compound 3.16 µM): > 3 µM
- IC50 (second compound 10 µM): > 3 µM
- viability, T/C (second compound 0.1 µM, first compound 0.00949 µM): 94.2%
- viability, T/C (second compound 0.1 µM, first compound 0.03 µM): 99.9%
- viability, T/C (second compound 0.1 µM, first compound 0.0949 µM): 95.5%
- viability, T/C (second compound 0.1 µM, first compound 0.3 µM): 85.9%
- viability, T/C (second compound 0.1 µM, first compound 0.949 µM): 70.8%
- viability, T/C (second compound 0.1 µM, first compound 3 µM): 56.3%
- viability, T/C (second compound 0.316 µM, first compound 0.00949 µM): 85.5%
- viability, T/C (second compound 0.316 µM, first compound 0.03 µM): 96.2%
- viability, T/C (second compound 0.316 µM, first compound 0.0949 µM): 74.8%
- viability, T/C (second compound 0.316 µM, first compound 0.3 µM): 73.8%
- viability, T/C (second compound 0.316 µM, first compound 0.949 µM): 62.6%
- viability, T/C (second compound 0.316 µM, first compound 3 µM): 50.1%
- viability, T/C (second compound 1 µM, first compound 0.00949 µM): 93.9%
- viability, T/C (second compound 1 µM, first compound 0.03 µM): 94.8%
- viability, T/C (second compound 1 µM, first compound 0.0949 µM): 87.5%
- viability, T/C (second compound 1 µM, first compound 0.3 µM): 78.2%
- viability, T/C (second compound 1 µM, first compound 0.949 µM): 65.4%
- viability, T/C (second compound 1 µM, first compound 3 µM): 39.4%
- viability, T/C (second compound 3.16 µM, first compound 0.00949 µM): 92.8%
- viability, T/C (second compound 3.16 µM, first compound 0.03 µM): 97.1%
- viability, T/C (second compound 3.16 µM, first compound 0.0949 µM): 95.9%
- viability, T/C (second compound 3.16 µM, first compound 0.3 µM): 74.8%
- viability, T/C (second compound 3.16 µM, first compound 0.949 µM): 57.3%
- viability, T/C (second compound 3.16 µM, first compound 3 µM): 50.4%
- viability, T/C (second compound 10 µM, first compound 0.00949 µM): 81.6%
- viability, T/C (second compound 10 µM, first compound 0.03 µM): 84.6%
- viability, T/C (second compound 10 µM, first compound 0.0949 µM): 73.9%
- viability, T/C (second compound 10 µM, first compound 0.3 µM): 72.7%
- viability, T/C (second compound 10 µM, first compound 0.949 µM): 64.8%
- viability, T/C (second compound 10 µM, first compound 3 µM): 68.9%
